Measured values as given in patent US20050059610A1 (priority 2003, published 2005).
Where a SMILES comes first, the peptide text is derived from it.

Legend:
[1] = test system: myocardial ischemia/reperfusion injury; details: single dose 18 hours prior to myocardial injury, rat
[2] = test system: polymicrobial sepsis (2CLP); experiment: Cecal-ligation and double-puncture (2CLP) sepsis: survival, cytokines, lung HSP 72; type: in vivo, Sprague-Dawley rats
Excerpt: Further, increased Interleukin-18 (IL-18) levels appear to play a critical role in cytokine-induced organ failure and can be predictive of mortality in sepsis patients.
Increased Interleukin-18 (IL-18) levels appear to play a critical role in cytokine-induced organ failure and can be predictive of mortality in sepsis patients.

[3] = test system: polymicrobial sepsis (CLP); experiment: Cecal ligation and puncture (CLP): lung and heart tissue metabolism by MRS, survival; type: in vivo, Sprague-Dawley rats; details: single large dose following onset of sepsis, CLP rat
Experimental: Survival was monitored for five days. In a separate group of animals (n=4/group), lung and heart tissue was harvested 24 hours post-CLP and tissue metabolism was analyzed by ^1H-MRS and ^31P-MRS.

congestive heart failure = details: 4 weeks of supplementation (Azuma et al 1983); cited from earlier work
sepsis (CLP) = experiment: CLP with or without quercetin (HSP 70 inhibitor): survival, lung HSP/NOS, metabolism, TNF; type: in vivo, Sprague-Dawley rats; details: quercetin 400 mg/kg IP 6 hours pre-CLP
Experimental: Methods: Male Sprague-Dawley rats were divided into 5 groups. Two groups were treated with 400 mg/kg of quercetin (Q) IP (HSP 70 inhibitor) 6 hours pre-CLP. […] The final group (CONT, n=6) received no treatment. Five-day survival was monitored. In separate studies, lung was harvested 24-hours post-CLP and tissue metabolism analyzed by 31P- and 1H-MRS. A final study analyzed blood for TNF- at 6 hours post-CLP and lung tissue 6 hours post-CLP for HSP-70, iNOS, eNOS, and activated heat shock factor-1 (HSF-1).

[4] = test system: polymicrobial sepsis and peritonitis (CLP); experiment: CLP peritonitis/polymicrobial sepsis, GLN 30 minutes after induction, with or without quercetin; type: in vivo, rat; details: quercetin with GLN
Excerpt: Cecal ligation and puncture (CLP) in the rat was chosen as the appropriate model.

C[C@H](N)C(=O)N[C@@H](CCC(N)=O)C(=O)O [alanyl-glutamine] (H-Ala-Gln-OH)
myocardial function following ischemia and reperfusion injury [1]: improve myocardial function | lung HSP 72 expression versus control ([2]; following 2CLP): restore normal heat shock protein expression | inflammatory cytokine release ([2]; single large dose following onset of sepsis, CLP rat): attenuate | cellular metabolism in the lung [3]: improve

NCCS(=O)(=O)O [taurine]
dyspnea, palpitation, crackles, edema, and New York Heart Association functional class (congestive heart failure): highly significant improvement

O=c1c(O)c(-c2ccc(O)c(O)c2)oc2cc(O)cc(O)c12 [Q, quercetin, reference compound]
effect on TNF- or NOS expression (sepsis (CLP)): No Q effect | HSF-1 activation and subsequent HSP70 expression (sepsis (CLP); with GLN): Inhibition | effect on GLN's improvements in lung tissue metabolic dysfunction (sepsis (CLP); with GLN): blocked | effect on GLN's survival benefit (sepsis (CLP); with GLN): abrogated | effect on GLN attenuation of tissue metabolic dysfunction [4]: inhibited | effect on GLN improvement of survival [4]: inhibited | effect on GLN-enhanced HSP 70 expression and HSF-1 activation [4]: blocked
